Test results from patent US10118921B2, “Diarylmethylidene piperidine derivatives and their use as delta opoid receptor agnists” (PHARMNOVO AB, priority 2014, dated 2018).

Experiments:
Type in all cases: cell-based
δ-opioid receptor (DOR) [1] = biological target: T1, δ-opioid receptor (DOR) (Homo sapiens, UniProt P41143); test: cAMP measurement in δ-opioid-expressing CHO cells (DiscoveRx cAMP Hunter)
From the text: (§1) δ-opioid receptors (DOR) are coupled to inhibitory G proteins (Gi/o) which inhibit adenylyl cyclase activity, open K^+ channels and block Ca^2+ channels. They can also couple, in an agonist-dependent manner to β-arrestin 2, which lead to desensitization, and to MAP kinase (ERK) phosphorylation.
(§2) In Vitro Assessment of δ-Opioid Agonist Potency: […]
(§3) cAMP measurements will be made in δ-opioid-expressing CHO cells exposed to increasing agonist concentrations using DiscoveRx cAMP Hunter™ assay kits. β-arrestin recruitment will be measured in the presence of increasing agonist concentrations using DiscoveRx Pathunter® kits. Selectivity of mu- and kappa-opioid receptors will be performed using Cerep cAMP evaluation from ref. 1392 and 2071 (Cerep Le Bois l'Evéque, 86600 Celle l'Evescault, France).

δ-opioid receptor (DOR) [2] = biological target: T1, δ-opioid receptor (DOR); test: β-arrestin recruitment (DiscoveRx Pathunter)
From the text: as §1, §2, §3

mu-opioid receptor = mu-opioid receptor (Homo sapiens, UniProt P35372); test: Selectivity versus mu-opioid receptor, Cerep cAMP evaluation; details: ratio mu/delta
From the text: as §3

kappa-opioid receptor = kappa-opioid receptor (Rattus norvegicus, UniProt P34975); test: Selectivity versus kappa-opioid receptor, Cerep cAMP evaluation; details: ratio kappa/delta
From the text: as §3

[3] = δ-opioid-expressing CHO cells, agonist potency, read-out: EC-50 cAMP
[4] = β-arrestin recruitment, agonist potency, read-out: EC-50 beta-arrestin

Chain of kappa-opioid receptor (P34975 whole entry): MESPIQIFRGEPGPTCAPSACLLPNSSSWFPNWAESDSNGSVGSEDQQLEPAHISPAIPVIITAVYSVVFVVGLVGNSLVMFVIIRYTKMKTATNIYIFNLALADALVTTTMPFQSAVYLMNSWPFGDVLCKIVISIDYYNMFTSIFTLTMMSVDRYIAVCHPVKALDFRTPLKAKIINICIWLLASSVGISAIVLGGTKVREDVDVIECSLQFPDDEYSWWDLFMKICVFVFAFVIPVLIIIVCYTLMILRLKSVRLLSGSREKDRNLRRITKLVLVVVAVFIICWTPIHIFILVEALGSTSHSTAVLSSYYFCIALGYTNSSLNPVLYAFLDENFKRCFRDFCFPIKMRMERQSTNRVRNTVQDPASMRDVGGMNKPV
Chain of mu-opioid receptor (P35372 whole entry): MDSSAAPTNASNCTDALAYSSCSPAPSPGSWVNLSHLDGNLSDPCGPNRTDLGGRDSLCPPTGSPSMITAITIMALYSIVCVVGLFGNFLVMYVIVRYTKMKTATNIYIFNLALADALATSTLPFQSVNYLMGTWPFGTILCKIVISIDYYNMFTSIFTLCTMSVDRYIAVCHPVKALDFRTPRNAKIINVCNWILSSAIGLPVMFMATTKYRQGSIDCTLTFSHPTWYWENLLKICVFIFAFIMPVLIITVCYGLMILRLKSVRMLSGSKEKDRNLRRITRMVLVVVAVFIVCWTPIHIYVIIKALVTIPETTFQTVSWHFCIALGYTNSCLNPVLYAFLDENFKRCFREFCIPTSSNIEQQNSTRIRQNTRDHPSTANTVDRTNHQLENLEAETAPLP
T1 sequence (P41143 whole entry): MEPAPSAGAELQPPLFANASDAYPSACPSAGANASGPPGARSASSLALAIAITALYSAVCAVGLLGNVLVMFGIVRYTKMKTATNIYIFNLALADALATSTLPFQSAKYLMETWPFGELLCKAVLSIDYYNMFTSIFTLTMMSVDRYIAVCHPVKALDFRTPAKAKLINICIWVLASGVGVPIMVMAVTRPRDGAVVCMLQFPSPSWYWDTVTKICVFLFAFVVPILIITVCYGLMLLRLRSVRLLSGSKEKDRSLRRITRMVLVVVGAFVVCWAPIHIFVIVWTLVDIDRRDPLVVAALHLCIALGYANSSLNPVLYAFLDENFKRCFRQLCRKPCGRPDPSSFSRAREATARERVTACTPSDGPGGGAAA

Structure (SMILES) | EC50 (δ-opioid receptor (DOR) [1]; [3]) | EC50 (δ-opioid receptor (DOR) [2]; [4]) | Selectivity (mu/delta) (mu-opioid receptor) | Selectivity (kappa/delta) (kappa-opioid receptor) | EC50 (δ-opioid receptor (DOR) [1]) | EC50 (δ-opioid receptor (DOR) [2])
CN(C)C(=O)c1ccc(C(=C2CCN(Cc3ccc(C(F)(F)F)nc3)CC2)c2cccc(C(N)=O)c2)cc1 [Example 1a, 4-[(3-Carbamoylphenyl)(1-{[6-(trifluoromethyl)pyridin-3-yl]methyl}piperidin-4-ylidene)methyl]-N,N-dimethylbenzamide] | 2.8 nM | 28 nM | 360 | 360 |  | 
CN(C)C(=O)c1ccc(C(=C2CCN(Cc3cncs3)CC2)c2cccc(C(N)=O)c2)cc1 [Example 1b, 4-[(3-Carbamoylphenyl)[1-(1,3-thiazol-5-ylmethyl)piperidin-4-ylidene]methyl]-N,N-dimethylbenzamide] |  |  | 100000 | 1000 | 0.5 nM | 4 nM
Cc1nc[nH]c1CN1CCC(=C(c2ccc(C(=O)N(C)C)cc2)c2cccc(C(N)=O)c2)CC1 [Example 1c, 4-[(3-Carbamoylphenyl)({1-[(4-methyl-1H-imidazol-5-yl)methyl]piperidin-4-ylidene})methyl]-N,N-dimethylbenzamide] | 0.5 nM | 3 nM | 1000 | 1000 |  | 
